The source of these data is patent US4557934A, “Penetrating topical pharmaceutical compositions containing 1-dodecyl-azacycloheptan-2-one” (priority 1983, dated 1985).

For data set [1] the following is noted: clindamycin phosphate, erythromycin base, fusidate sodium, fluorouracil, desonide, amcinonide and triamcinolone acetonide; cited from earlier work.
Data set [2] relates to rats. The settings on record: cited from earlier work.
The nature of data set [3]: Penetration study through human skin, Franz diffusion apparatus. It counts as in vitro ADME. The settings on record: for reduction of penetration on addition, in words (compared with octanoic acid): Example 8. From the text:
EtOH is ethanol. The term mcg=microgram.

With `CCCCCCCCCCCCN1CCCCCC1=O` [Azone, 1-dodecyl-azacycloheptan-2-one], in data set [1], the “enhancement of cutaneous penetration” value was “enhance the cutaneous penetration”. Moreover, the order of toxicity result in data set [2] (rat, in vivo) is reported as “low order of toxicity”. In data set [2] (rats), the “lethal dose for 50% survival (LD50)” value is recorded as “about 8 g/kg”.

On to `CCCCCCCCCCCCCCCCO` [cetyl alcohol], for which the “reduction of penetration on addition, in words (compared with octanoic acid)” value (shortened to “reduction … (compared with octanoic acid)”) in data set [3] is “Substantially similar results”.

`CCCCCCCCCC(=O)O` [decanoic acid]: the “reduction … (compared with octanoic acid)” value in data set [3] is on record as “Substantially similar results”.

Consider `CCCCCCCC(=O)O` [octanoic acid], for which the “reduction of penetration on addition to triamcinolone / propylene glycol / C14 OH composition” value in data set [3] (Example 8, 0-72 hrs, 4% octanoic acid) is listed as 50%.

For `CCCCCCCCCCCCCCCCCCO` [steryl alcohol], the “reduction … (compared with octanoic acid)” value in data set [3] is reported as “Substantially similar results”.
